Laboratory results reported in patent US6147107A, “Specific inhibition of the P42/44 mitogen activated protein (map) kinase cascade sensitizes tumor cells” (priority 1998, dated 2000).

Columns and labels:
[1] = system: HL-60 cells; experiment: Taxol-mediated apoptosis of HL-60 cells; details: Homo sapiens, HL-60, 6 h, read-out: cell death, taxol alone
[2] = system: A431 cells
[3] = system: MEK1 and MEK2; experiment: Inhibition of Raf-mediated phosphorylation/activation of MEK1/2; type: biochemical; details: for inhibition of MEK1 and MEK2: general statement; for inhibition of Raf phosphorylation of MEK1 and MEK2: stated as demonstrated by the applicant
[4] = system: MDA-MB-231 mammary cancer cells
Method: To further extend these investigations, the efficacy of U0126 was tested in the mammary cancer cell line MDA-MB-23 1. As described in the previous experiment, cells were exposed to 2 μM U0126 alone, radiation (3×2 Gy) alone, or to the combination of U0126 plus radiation. Control cells were treated with vehicle alone.

[5] = system: A431 cells; experiment: TUNEL assay, apoptosis of A431 cells after radiation; type: cell-based, human; details: 2 μM inhibitor + 2 Gy, 24 hours
Method: The ability of the cells to survive was assessed using TUNEL assays 24 hours after irradiation and the results are depicted in FIG. 4.

[6] = system: MEK1 and MEK2; details: general statement on known inhibitors; cited from earlier work
[7] = system: cancer cells; experiment: Radiosensitization of cancer cells; type: cell-based; details: general statement
[8] = system: HL-60 cells; experiment: Clonogenicity of HL-60 cells; type: cell-based, human; details: either agent alone
Method: FIGS. 9a and 9b. […] HL-60 cells were exposed to ara-C (10 μM) in the absence or presence of aminomethoxyflavone (PD98059; 2.5 μM) for 6 hours. Apoptotic DNA damage and cell death were assessed as described in Methods. […] FIG. 9b.
Determination of Clonogenicity: Pelleted cells were rinsed extensively and prepared for soft-agar cloning. Cells were resuspended in cold PBS and seeded in 35-mm culture plates at a fixed density (400 cell/ml/well) in complete RPMI-1640 medium containing 20% fetal calf serum, 10% 5637-CM, and 0.3% Bacto agar. Cultures were mainatined for 10 to 12 days before formation of colonies (defined as groups of ≥50 cells) was scored.

[9] = system: p42/44 MAP kinase; experiment: MAP kinase activity in HL-60 cells (immunoprecipitation, MBP substrate); type: cell-based, human; details: ara-C
Method: FIG. 8. […] HL-60 cells were exposed to ara-C (10 μM) in the absence or presence of aminomethoxyflavone (PD98059; 2.5 μM) for 3 hours. MAP kinase activity (p42-ERK1/p44-ERK2) was determined by in vitro assay. In each case, values reflect the mean ±SE of duplicate determinations, and are expressed as a percentage of basal activity present in untreated controls.
Determination of MAPK Activity: Pelleted cells were rinsed in PBS, repelleted, and flash-frozen. Cell pellets were lysed in 25 mM Hepes, pH 7.4 containing 5 mM EGTA, 5 mM EDTA, supplemented with protease inhibitors (5 mM benzamidine, 1 mM phenylmethylsulfonylfluoride, 1 mg/ml soybean trypsin inhibitor, 40 μg/ml aprotinin, 1 μM microcystin LR) phosphatase inhibitors (0.5 mM trisodium orthovanadate, 0.5 mM tetrasodium pyrophosphate), and containing 0.056% sodium deoxycholate w/v, 1% Triton X-100 v/v, and 0.1% 2-mercaptoethanol v/v. Lysates were clarified by centrifugation at 5,000× g at 4° C. for 5 min. MAPK activity was assayed using MBP as a substrate following immunoprecipitation of p42/44 MAP kinase with protein A/agarose-conjugated antibody/antisera. Preimmune controls were also run to ensure selectivity of substrate phosphorylation. Reaction mixtures consisted of immunoprecipitated enzyme, substrate, and [γ-^32 P] ATP ([…]) in 25 mM Hepes, pH 7.4 containing 15 mM MgCl2, […], 0.01% (v/v) 2-mercaptoethanol, 1 μM […]. Reactions were initiated by the addition of substrate. MAPK reactions were terminated by transfer to p81 filter paper; filters were rinsed repeatedly in 185 mM orhtophosphoric acid, and then dehydrated in acetone. Total radioactivity in filters was determined by liquid scintillometry.
HL-60 cells were exposed to ara-C in the absence or presence of PD98059. Following this treatment, the cells were eveluated for MAP kinase activity, DNA strand breakage, clonogenicity potential and extent of apoptosis.

[10] = system: HepG2 hepatoma cells; experiment: TUNEL assay, HepG2 hepatoma cells after radiation; type: cell-based; details: SL327 (2 μM) + 2×2 Gy, 12 hours
Method: (§1) Experimental cells were exposed to radiation (2×2 Gy), or treated with the p42/44 MAP kinase inhibitory drug SL327 (2 μM), or treated with SL327 and exposed to radiation. Twelve hours after the final irradiation, cells were assessed by the TUNEL assay.
(§2) This is highly relevant because the neoplastic cells which are targeted for destruction by radiation therapy are rapidly proliferating, in contrast to most normal slowly growing somatic cells. Primary hepatocytes (representing slow growing "normal" cells) and HepG2 hepatoma cells derived from a cancerous cell line were cultured under identical conditions. Control cells of both types were left untreated. Matched samples of both cell types were treated with the p42/44 MAP kinase cascade inhibitory drug SL327, or exposed to radiation (2×2 Gy), or treated with SL327 and exposed to radiation. Twelve hours after the final irradiation, cells were processed and the number of dead (apoptoic) cells was determined by the TUNEL assay. […] Furthermore, the effect is specific for rapidly growing cells.

[11] = system: primary hepatocytes; experiment: TUNEL assay, primary hepatocytes after radiation; type: cell-based; details: SL327 (2 μM) + 2×2 Gy, 12 hours
Method: as §1, §2

Compound | inhibition of MEK1 and MEK2 [3] | inhibition of Raf phosphorylation of MEK1 and MEK2 [3] | percentage of apoptotic cells (TUNEL) [5] | mode of action at MEK1/2 [6] | radiosensitization of cancer cells [7] | further results
CC(=O)O[C@H]1C(=O)[C@@]2(C)[C@H]([C@H](OC(=O)c3ccccc3)[C@]3(O)C[C@H](OC(=O)[C@H](O)[C@@H](NC(=O)c4ccccc4)c4ccccc4)C(C)=C1C3(C)C)[C@]1(OC(C)=O)CO[C@@H]1C[C@@H]2O [taxol] | – | – | – | – | – | cytotoxicity at 0.5 µM [1]: ~27%
N#CC(=C(N)Sc1ccccc1N)C(C#N)=C(N)Sc1ccccc1N [U0126, 1,4-diamino-2,3-dicyano-1,4-bis[2-aminophenylthio]butadiene] | all inhibit MEK1 and MEK2 | inhibiting the ability of Raf protein kinases to phosphorylate MEK1 and MEK2 | dramatic increase in the percentage of apoptotic cells | bind to MEK1/2 and sterically prevent Raf from binding | all cause radiosensitization of cancer cells | abolishing cellular proliferation versus U0126 alone or irradiation alone (MTT) ([2]; 2 μM U0126 + 3×2 Gy): markedly more effective; proliferative rate (MTT) ([2]; 2 μM U0126 alone or with 3×2 Gy, 4-8 days): Decreased proliferative rate; decreasing cellular proliferative potential versus either treatment alone (MTT) ([4]; 2 μM U0126 + 3×2 Gy): far more effective; proliferative rate (MTT) ([4]; 2 μM U0126 alone or with 3×2 Gy, 3-4 days): Decreased proliferative rate
O=C(NOCC1CC1)c1ccc(F)c(F)c1Nc1ccc(I)cc1Cl [PD184352] | – | – | – | bind to MEK1/2 and sterically prevent Raf from binding | – | –
Cl.Nc1ccn([C@@H]2O[C@H](CO)[C@@H](O)[C@@H]2O)c(=O)n1 [ara-C, 1-[β-D-arabinofuranosyl] cytosine hydrochloride] | – | – | – | – | – | clonogenic potential, single agent [8]: neither alone had this effect; MAP kinase activity, effect of ara-C [9]: stimulation of MAP kinase
N#C/C(=C(/N)Sc1ccc(N)cc1)c1ccccc1C(F)(F)F [SL327] | all inhibit MEK1 and MEK2 | inhibiting the ability of Raf protein kinases to phosphorylate MEK1 and MEK2 | dramatic increase in the percentage of apoptotic cells | bind to MEK1/2 and sterically prevent Raf from binding | all cause radiosensitization of cancer cells | increase in cell killing compared to radiation alone [10]: approximately 2.5 fold; response to combined drug/radiation treatment (TUNEL) [10]: effectively killed; response to combined drug/radiation therapy (TUNEL) [11]: fairly resistant
